Laboratory results published in patent publication US20240398836A1, “EPOXY STEROIDS” (priority 2021, published 2024).

Columns and labels:
human primary leukocytes = test: Selectivity: apoptosis (DNA fragmentation, flow cytometry) in leukocytes; format: cell-based
Description: (§1) WIL 071 acts selectively in malignant cells that are proliferating.
(§2) The DNA fragmentation was measured by flow cytometry, see FIG. 7. The experiments were performed in triplicate. The error bars show the standard deviations of the measured values of three independent experiments.

NaKu cells = test: Apoptosis induction in steroid- and polycytostatics-resistant NaKu cells vs Nalm-6; format: cell-based; conditions: steroid- and polycytostatics-resistant leukemia cells (ALL)
Description: (§3) The experiments were performed in triplicate. The error bars show the standard deviations of the measured values of three independent experiments.
The steroid WIL 071 overcomes steroid resistence in leukemia cells (NaKu cells). Further, the steroid-resistent leukemia cells (NaKu cells) have co-resistencies for the following cytostatics: • prednisolone, methylprednisolone, dexamethasone, • doxorubicin, daunorubicin, idarubicin, epirubicin • cytarabine, cladribine • etoposide • cyclophosphamide, ifosfamide • vindesine • cisplatin, carboplatin, oxaliplatin

[1] = tested on: neuroblastoma cells (SKNAS cells), LiOn cells; test: Apoptosis in cytostatics-resistant solid tumor cells; format: cell-based; conditions: SKNAS cells and cisplatin-resistant LiOn cells (caspase-8 underexpression)
Description: In contrast to conventional glucocorticoids, the steroid WIL 071 can induce apoptosis also in solid tumor cells.
The DNA fragmentation was measured by flow cytometry), see FIG. 8. The experiments were performed in triplicate. The error bars show the standard deviations of the measured values of three independent experiments.

7-CCA cells = test: Apoptosis induction in polycytostatics-resistant 7-CCA cells vs BJAB; format: cell-based; conditions: doxorubicin-resistant BJAB, caspase-3 underexpression
Description: 7-CCA cells are lymphoma cells (BJAB cells) that have been made resistent against doxorubin, and have a caspase-3 underexpression as a resistence mechanism. They have co-resistences for the following cytostatics: • vincristine, vinblastine, vindesine, vinorelbin, taxol • cytarabin, fudarabin, cladribin, clofarabin, • daunorubicin, doxorubicin, idarubicin, epirubicin • cisplatin, oxaliplatin
The experiments were performed in triplicate. The error bars show the standard deviations of the measured values of three independent experiments. The steroid WIL 071 overcomes steroid resistence in lymphoma cells (7-CCA cells).

Nalm-6 cells [2] = test: Selectivity: apoptosis (DNA fragmentation, flow cytometry) in leukemia cells; format: cell-based
Description: as §1, §2

[3] = tested on: prednisolone-resistant leukemia cells; test: Overcoming of prednisolone resistance; format: cell-based; conditions: 72 h
Description: (§4) The cells were incubated in 6-well plates with 1.0·10^5 cells/mL in two milliliters of medium with the respective steroid derivative in different concentrations. The included solvent control (DMSO) served as a control, which was subtracted from all the other measured values, in order not to take into account the spontaneous apoptosis of the cells that takes place independently of the concentration of active ingredient. After 72 h, a modified cell cycle analysis was performed, in order to quantify the proportion of apoptotic cells by flow cytometry. For each concentration of the steroid, the respective mean values f standard deviations, n=3 (*: p<0.05 vs. DMSO, t test) were determined. Using the curve of the dose-effect relationship (steroid concentration−apoptosis induction) formed from these measured values, the steroid concentration at which apoptosis was triggered in 50% of the tested leukemia cells was read.
Prednisolone resistance is said to be overcome if the induction of apoptosis in prednisolone-resistant leukemia cells is as high as it is in normal leukemia cells.

Nalm-6 cells [4] = test: Half-maximal apoptosis induction (AC50) in Nalm-6 cells; format: cell-based; conditions: Homo sapiens; Nalm-6, 72 h, flow cytometry; read-out: Biological effect: half-maximal apoptosis induction (AC50)
Description: Apoptosis Induction in Nalm-6 Cells after Treatment with WIL-071 or Different Steroid Derivatives.
as §4

[5] = tested on: pancreatic carcinoma cells (DAN-G); test: Apoptosis in pancreatic carcinoma cells; format: cell-based; conditions: DAN-G cell line
Description: In contrast to conventional glucocorticoids, the steroid WIL 071 can induce apoptosis also in pancreatic carcinoma cells.
The DNA fragmentation was measured by flow cytometry, see FIG. 11. The experiments were performed in triplicate. The error bars show the standard deviations of the measured values of three independent experiments.
The standard treatment for pancreatic carcinoma includes 5-fluorouracil.

Nalm-6 cells [6] = test: Synergistic apoptosis induction with cytarabin or vincristine; format: cell-based
Description: as §3

BJAB cells = test: Selectivity: apoptosis (DNA fragmentation, flow cytometry) in lymphoma cells; format: cell-based
Description: as §1, §2

[7] = Tolerability (dose escalation, MTD) in an animal model; format: in vivo, NOG-F (Taconic) mice
Description: An incremental increase of dose of the three substances Wil-071, Wil-232 and Wil-369 was performed in 8-week-old female NOG-F (Taconic) mice. Different mice were administered one of up to seven different doses of the test substances. The start was on day 1 with the lowest dose of 10 mg/kg. […] All in all, if possible, the doses 10, 20, 40, 80, 100, 150 and 200 mg/kg are tested. Subsequently, the maximum tolerable dose (MTD) was administered to three more animals, and these were subsequently observed for one week, in order to be able to observe any developing symptoms. For this purpose, the animals were observed and weighed on a daily basis. The body weight is considered an indicator of the general condition of the animals.
For the MTD experiment, Wil-071 was dissolved in 100% DMSO, and then diluted 1:50 with a 20% (w/v) 2-hydroxypropyl-beta-cyclodextrin (HPβCD) solution. Thus, 200 μL of injection solution (per mouse) of a 40 mg/kg dose could be achieved. For 80, 100 and 150 mg/kg, the DMSO proportion was increased to up to 4% (v/v) in the final injection solution. In addition, ultrasound had to be employed, and the sample had to be heated at 60° C. for up to 45 min. 200 mg/kg was reached only as a milky suspension. […] Therefore, Wil-071 can be considered non-toxic up to 150 mg/kg. The final MTD could not be determined because of the insufficient solubility.
For 100 mg/kg of Wil-232, the end concentration of DMSO in the injection solution was 2%. In order to dissolve Wil-232, the sample also had to be treated with ultrasound, and heated at 60° C. The dose of 150 mg/kg was achieved only with 4% DMSO, and 200 mg/kg was achieved only as a suspension. […] Otherwise, there were no signs of toxicity, so that the substance can be considered tolerable up to 150 mg/kg. In this case too, a final MTD cannot be determined because of insufficient solubility.
Using a DMSO stock and 20% HPβCD solution, a maximum of only 5 mg/ml was dissolved. A further increase could not be achieved even with more DMSO or HPβCD. Thus, above the dose of 40 mg/kg, a higher injection volume was injected in order to reach the corresponding dose. […] For the tolerability under the current solubility conditions, a value of […] is to be applied. This dose was injected into the 8 animals for pharmacokinetics. In this case too, a final MTD cannot be determined because of insufficient solubility.

## CC(C)CCC[C@@H](C)[C@H]1CC[C@H]2[C@@H]3[C@H]4OC[C@@]5(CC[C@H](O)C[C@]5(O)C4=O)[C@H]3CC[C@]12C [WIL-071, 3β,5α-dihydroxy-7β,19-epoxy-cholestan-6-one]
Human primary leukocytes
  apoptosis induction (DNA fragmentation): apoptosis is not induced
NaKu cells
  apoptosis induction in resistant NaKu cells compared with Nalm-6: induces as much apoptosis as in the non-resistent leukemia cells (Nalm-6)
[1]
  apoptosis induction / overcoming of cytostatics resistance: Resistances towards cytostatics are overcome
7-CCA cells
  apoptosis induction in resistant 7-CCA cells compared with BJAB: induces as much apoptosis as in the non-resistent lymphoma cells
Nalm-6 cells [2]
  apoptosis induction (DNA fragmentation): apoptosis is induced in a concentration-dependent way
[3]
  EC50: 16 µM
Nalm-6 cells [4]
  AC50: 17.2 µM
[5]
  apoptosis induction (DNA fragmentation): significantly induces apoptosis
Nalm-6 cells [6]; Nalm-6, parallel treatment with cytarabin
  synergistic effect on apoptosis with cytarabin: synergistic effects
Nalm-6 cells [6]; Nalm-6, parallel treatment with vincristine
  synergistic effect on apoptosis with vincristine: synergistic effects
BJAB cells
  apoptosis induction (DNA fragmentation): apoptosis is induced in a concentration-dependent way
[7]; 200 mg/kg as suspension, signs of pulmonary embolism in section
  outcome of injection of the 200 mg/kg suspension: immediate death of the animal
[7]; injection into caudal vein, mice, final MTD not determinable because of solubility
  dose up to which non-toxic / tolerable: up to 150 mg/kg
